Data taken from PubChem BioAssay (NCI).
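Method: 48-hour compound exposure of cells in 96-well plates, five concentrations, linear interpolation of endpoints. At the GI50, growth is halved. At the TGI there is no net growth.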

The compounds below were run on MDA-MB-231 breast (assay: growth of human tumour cells (NCI), 48 h).
For Nc1ccncc1/C=C1/C(=O)Nc2ccccc21, the GI50 was 50.1 µM and the TGI was > 100 µM.
With O=c1[nH]c2cc(Cl)ccc2n1C1CCN(CCCC(c2ccc(F)cc2)c2ccc(F)cc2)CC1 the GI50 was 1.68 µM and the TGI was 3.12 µM.

Each compound was assayed on HT29 colon (assay: growth of human tumour cells (NCI), 48 h).
CCOC(=O)C1=C(C)N(N)C(=S)NC1c1ccc(C)cc1 (stereo not drawn) was tested, and the GI50 was 26 µM and the TGI was > 100 µM.
With Cc1ccc(N(CSc2ccc(Cl)cc2)CSc2ccc(Cl)cc2)cc1 the GI50 was 1.85 µM and the TGI was 24.1 µM.
With Nc1ccncc1/C=C1/C(=O)Nc2ccccc21 the GI50 was 27.8 µM and the TGI was > 100 µM.
O=c1[nH]c2cc(Cl)ccc2n1C1CCN(CCCC(c2ccc(F)cc2)c2ccc(F)cc2)CC1 was tested, and the GI50 was 0.766 µM and the TGI was 2.16 µM.

Each compound was assayed on OVCAR-5 ovarian (assay: growth of human tumour cells (NCI), 48 h).
CCOC(=O)C1=C(C)N(N)C(=S)NC1c1ccc(C)cc1 (stereo not drawn) was tested, and the GI50 was 15.7 µM and the TGI was > 100 µM.
Cc1ccc(N(CSc2ccc(Cl)cc2)CSc2ccc(Cl)cc2)cc1 showed a GI50 of 1.74 µM and a TGI of 13 µM.
Nc1ccncc1/C=C1/C(=O)Nc2ccccc21 was tested, and the GI50 was 75.3 µM and the TGI was > 100 µM.
In the case of O=c1[nH]c2cc(Cl)ccc2n1C1CCN(CCCC(c2ccc(F)cc2)c2ccc(F)cc2)CC1, the GI50 is reported as 1.74 µM and the TGI is reported as 3.43 µM.

These compounds were tested on LOX IMVI melanoma (assay: growth of human tumour cells (NCI), 48 h).
For CCOC(=O)C1=C(C)N(N)C(=S)NC1c1ccc(C)cc1 (stereo not drawn), the GI50 was 9.19 µM and the TGI was > 100 µM.
For Cc1ccc(N(CSc2ccc(Cl)cc2)CSc2ccc(Cl)cc2)cc1, the GI50 was 0.189 µM and the TGI was 0.694 µM.
In the case of Nc1ccncc1/C=C1/C(=O)Nc2ccccc21, the GI50 is reported as 28 µM and the TGI is reported as > 100 µM.
Compound O=c1[nH]c2cc(Cl)ccc2n1C1CCN(CCCC(c2ccc(F)cc2)c2ccc(F)cc2)CC1 has a GI50 of 1.56 µM and a TGI of 2.89 µM.

Each compound was assayed on SN12C renal (assay: growth of human tumour cells (NCI), 48 h).
For CCOC(=O)C1=C(C)N(N)C(=S)NC1c1ccc(C)cc1 (stereo not drawn), the GI50 was > 100 µM and the TGI was > 100 µM.
With Cc1ccc(N(CSc2ccc(Cl)cc2)CSc2ccc(Cl)cc2)cc1 the GI50 was 0.501 µM and the TGI was 14.5 µM.
In the case of Nc1ccncc1/C=C1/C(=O)Nc2ccccc21, the GI50 is reported as 18.3 µM and the TGI is reported as > 100 µM.
For O=c1[nH]c2cc(Cl)ccc2n1C1CCN(CCCC(c2ccc(F)cc2)c2ccc(F)cc2)CC1, the GI50 was 1.78 µM and the TGI was 3.27 µM.

What follows are compounds tested on SNB-75 CNS (assay: growth of human tumour cells (NCI), 48 h).
Work on Cc1ccc(N(CSc2ccc(Cl)cc2)CSc2ccc(Cl)cc2)cc1 yielded a GI50 of 1.39 µM and a TGI of 8.7 µM.
Nc1ccncc1/C=C1/C(=O)Nc2ccccc21 showed a GI50 of 18.5 µM and a TGI of 63.2 µM.
For O=c1[nH]c2cc(Cl)ccc2n1C1CCN(CCCC(c2ccc(F)cc2)c2ccc(F)cc2)CC1, the GI50 was 1.27 µM and the TGI was 2.73 µM.

The compounds below were run on EKVX NSCLC (assay: growth of human tumour cells (NCI), 48 h).
In the case of Cc1ccc(N(CSc2ccc(Cl)cc2)CSc2ccc(Cl)cc2)cc1, the GI50 is reported as 0.542 µM and the TGI is reported as 26 µM.
For Nc1ccncc1/C=C1/C(=O)Nc2ccccc21, the GI50 was 47.2 µM and the TGI was > 100 µM.
Compound O=c1[nH]c2cc(Cl)ccc2n1C1CCN(CCCC(c2ccc(F)cc2)c2ccc(F)cc2)CC1 has a GI50 of 1.45 µM and a TGI of 3.38 µM.

The compounds below were run on M14 melanoma (assay: growth of human tumour cells (NCI), 48 h).
For CCOC(=O)C1=C(C)N(N)C(=S)NC1c1ccc(C)cc1 (stereo not drawn), the GI50 was 27.5 µM and the TGI was > 100 µM.
Work on Cc1ccc(N(CSc2ccc(Cl)cc2)CSc2ccc(Cl)cc2)cc1 yielded a GI50 of 1.48 µM and a TGI of 4.45 µM.
Compound Nc1ccncc1/C=C1/C(=O)Nc2ccccc21 has a GI50 of 20.5 µM and a TGI of 59.6 µM.
O=c1[nH]c2cc(Cl)ccc2n1C1CCN(CCCC(c2ccc(F)cc2)c2ccc(F)cc2)CC1 was tested, and the GI50 was 1.55 µM and the TGI was 3.05 µM.

What follows are compounds tested on MDA-MB-435 (assay: growth of human tumour cells (NCI), 48 h).
Work on CCOC(=O)C1=C(C)N(N)C(=S)NC1c1ccc(C)cc1 (stereo not drawn) yielded a GI50 of 14.8 µM and a TGI of 72.2 µM.
For Cc1ccc(N(CSc2ccc(Cl)cc2)CSc2ccc(Cl)cc2)cc1, the GI50 was 0.927 µM and the TGI was 9.38 µM.
Nc1ccncc1/C=C1/C(=O)Nc2ccccc21 showed a GI50 of 14.4 µM and a TGI of 35.4 µM.
Work on O=c1[nH]c2cc(Cl)ccc2n1C1CCN(CCCC(c2ccc(F)cc2)c2ccc(F)cc2)CC1 yielded a GI50 of 1.32 µM and a TGI of 2.63 µM.

Each compound was assayed on NCI-H23 lung (assay: growth of human tumour cells (NCI), 48 h).
CCOC(=O)C1=C(C)N(N)C(=S)NC1c1ccc(C)cc1 (stereo not drawn) was tested, and the GI50 was 63.9 µM and the TGI was > 100 µM.
Compound Cc1ccc(N(CSc2ccc(Cl)cc2)CSc2ccc(Cl)cc2)cc1 has a GI50 of 2.27 µM and a TGI of 10.5 µM.
Nc1ccncc1/C=C1/C(=O)Nc2ccccc21 was tested, and the GI50 was 31.9 µM and the TGI was > 100 µM.
O=c1[nH]c2cc(Cl)ccc2n1C1CCN(CCCC(c2ccc(F)cc2)c2ccc(F)cc2)CC1 gave a GI50 of 1.74 µM and a TGI of 3.43 µM.

Each compound was assayed on RXF 393 renal (assay: growth of human tumour cells (NCI), 48 h).
For CCOC(=O)C1=C(C)N(N)C(=S)NC1c1ccc(C)cc1 (stereo not drawn), the GI50 was 6.44 µM and the TGI was > 100 µM.
Compound Cc1ccc(N(CSc2ccc(Cl)cc2)CSc2ccc(Cl)cc2)cc1 has a GI50 of 1.73 µM and a TGI of 7.57 µM.
O=c1[nH]c2cc(Cl)ccc2n1C1CCN(CCCC(c2ccc(F)cc2)c2ccc(F)cc2)CC1 was tested, and the GI50 was 0.48 µM and the TGI was 2.02 µM.

The compounds below were run on TK-10 renal (assay: growth of human tumour cells (NCI), 48 h).
CCOC(=O)C1=C(C)N(N)C(=S)NC1c1ccc(C)cc1 (stereo not drawn) was tested, and the GI50 was 40.2 µM and the TGI was > 100 µM.
For Cc1ccc(N(CSc2ccc(Cl)cc2)CSc2ccc(Cl)cc2)cc1, the GI50 was 4.88 µM and the TGI was > 100 µM.
Nc1ccncc1/C=C1/C(=O)Nc2ccccc21 was tested, and the GI50 was 54.7 µM and the TGI was > 100 µM.
O=c1[nH]c2cc(Cl)ccc2n1C1CCN(CCCC(c2ccc(F)cc2)c2ccc(F)cc2)CC1 was tested, and the GI50 was 1.94 µM and the TGI was 3.55 µM.

Each compound was assayed on SF-268 CNS (assay: growth of human tumour cells (NCI), 48 h).
With CCOC(=O)C1=C(C)N(N)C(=S)NC1c1ccc(C)cc1 (stereo not drawn) the GI50 was 67 µM and the TGI was > 100 µM.
Cc1ccc(N(CSc2ccc(Cl)cc2)CSc2ccc(Cl)cc2)cc1 was tested, and the GI50 was 0.909 µM and the TGI was 12.4 µM.
With Nc1ccncc1/C=C1/C(=O)Nc2ccccc21 the GI50 was 28 µM and the TGI was > 100 µM.
O=c1[nH]c2cc(Cl)ccc2n1C1CCN(CCCC(c2ccc(F)cc2)c2ccc(F)cc2)CC1 showed a GI50 of 1.56 µM and a TGI of 2.98 µM.

What follows are compounds tested on K-562 leukemia (assay: growth of human tumour cells (NCI), 48 h).
For CCOC(=O)C1=C(C)N(N)C(=S)NC1c1ccc(C)cc1 (stereo not drawn), the GI50 was 21.6 µM and the TGI was > 100 µM.
Nc1ccncc1/C=C1/C(=O)Nc2ccccc21 was tested, and the GI50 was 33.6 µM and the TGI was > 100 µM.
O=c1[nH]c2cc(Cl)ccc2n1C1CCN(CCCC(c2ccc(F)cc2)c2ccc(F)cc2)CC1 was tested, and the GI50 was 2.98 µM and the TGI was > 100 µM.

Each compound was assayed on SW-620 colon (assay: growth of human tumour cells (NCI), 48 h).
For Cc1ccc(N(CSc2ccc(Cl)cc2)CSc2ccc(Cl)cc2)cc1, the GI50 was 2.22 µM and the TGI was 11.5 µM.
Nc1ccncc1/C=C1/C(=O)Nc2ccccc21 was tested, and the GI50 was 31.4 µM and the TGI was > 100 µM.
In the case of O=c1[nH]c2cc(Cl)ccc2n1C1CCN(CCCC(c2ccc(F)cc2)c2ccc(F)cc2)CC1, the GI50 is reported as 1.52 µM and the TGI is reported as 2.99 µM.

The compounds below were run on OVCAR-3 ovarian (assay: growth of human tumour cells (NCI), 48 h).
With CCOC(=O)C1=C(C)N(N)C(=S)NC1c1ccc(C)cc1 (stereo not drawn) the GI50 was 22.4 µM and the TGI was > 100 µM.
